Results reported in patent publication US10953027B2, “Active agents and methods of their use for the treatment of metabolic disorders and nonalcoholic fatty liver disease” (Flagship Pioneering Innovations V, Inc., priority 2018, dated 2021).

Legend:
Type in all cases: in vitro ADME
[1] = Assay 3. Fecal Incubation Stability; details: 1 or 10 μM, human fecal slurry, anaerobic
Protocol: Assay 3. Fecal Incubation Stability. This assay was used to assess the stability of an acylated active agent in a large intestine. All experiments were performed in an anaerobic chamber containing 90% nitrogen, 5% hydrogen and 5% carbon dioxide. Human fecal matter in a slurry (15% WV) is added to 96 well plates containing YCFA media or other suitable media (1.6 mL). Compounds were added to each individual well to reach a final analyte concentration of 1 or 10 μM, and the material was mixed by pipetting. At set time points a sample was removed, quenched with acetonitrile, and analyzed by LC/MS.

[2] = Assay 1. Stability in Simulated Gastric Fluid (SGF); details: 1 μM, 37° C., SGF pH 1.6 with pepsin
How it was run: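 Acylated compounds at a final 1 μM (diluted from 1 mM DMSO stock) were incubated at 37 °C in SGF of pH 1.6 NaCl buffer with FaSSIF powder and 0.1 mg/mL pepsin. Aliquots were quenched with acetonitrile at T0 and regular intervals, and degradation rates were determined by LC/MS.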

[3] = Assay 2. Stability in Simulated Intestinal Fluid (SIF); details: 1 μM, 37° C., SIF pH 6.7 with pancreatin
How it was run: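 Acylated compounds at 1 μM (from 1 mM DMSO stock) in fresh SIF: FaSSIF with pancreatin in pH 6.7 phosphate buffer, agitated at 37 °C. Aliquots from T0 onward quenched with 1 volume acetonitrile; LC/MS gives degradation rates.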

Compound	Assay 3 (% Remaining at 24 h) [1]	Assay 1 (SGF) (% Remaining @ 1 hours) [2]	Assay 2 (SIF) (% @ Remaining 4 hours) [3]
CCC(=O)OC1O[C@H](C(=O)O)[C@@H](OC(=O)CC)[C@H](OC(=O)CC)[C@H]1OC(=O)CC (stereo in doubt) [Compound 80, (2S,3S,4S,5R,6S)-3,4,5,6-tetrakis(propanoyloxy)oxane-2-carboxylic Acid]	A (A: <25% of the tested compound remaining)	C (C: >75% of the tested compound remaining)	A (A: <25% of the tested compound remaining)
CCCC(=O)Oc1cc(OC(=O)CCC)c2c(c1)O[C@H](c1cc(OC(=O)CCC)c(OC(=O)CCC)c(OC(=O)CCC)c1)[C@H](OC(=O)c1cc(OC(=O)CCC)c(OC(=O)CCC)c(OC(=O)CCC)c1)C2 [Compound 3, [(2R,3R)-5,7-di(butanoyloxy)-2-[3,4,5-tri(butanoyloxy)phenyl]chroman-3-yl] 3,4,5-tri(butanoyloxy)benzoate]	C (C: >75% of the tested compound remaining)	C (C: >75% of the tested compound remaining)	C (C: >75% of the tested compound remaining)
CC(=O)O[C@@H]1[C@H](OC(C)=O)C=C(C(=O)O)C[C@H]1OC(C)=O [Compound 43, (3R,4S,5R)-3,4,5-triacetoxycyclohex-1-ene-1-carboxylic Acid]	B (B: 25-75% of the tested compound remaining)	C (C: >75% of the tested compound remaining)	C (C: >75% of the tested compound remaining)
CO[C@@H]1OC[C@@H](OC(C)=O)[C@H](OC(C)=O)[C@H]1OC(C)=O [Compound 45, (2R,3R,4S,5R)-2-methoxytetrahydro-2H-pyran-3,4,5-triyl Triacetate]	B (B: 25-75% of the tested compound remaining)	C (C: >75% of the tested compound remaining)	B (B: 25-75% of the tested compound remaining)
CO[C@H]1OC[C@@H](OC(C)=O)[C@H](OC(C)=O)[C@H]1OC(C)=O [Compound 46, (2S,3R,4S,5R)-2-methoxytetrahydro-2H-pyran-3,4,5-triyl Triacetate]	B (B: 25-75% of the tested compound remaining)	C (C: >75% of the tested compound remaining)	B (B: 25-75% of the tested compound remaining)
CCC(=O)O[C@H]1O[C@H](C(=O)O)[C@@H](OC(=O)CC)[C@H](OC(=O)CC)[C@H]1OC(=O)CC [Compound 79, (2S,3S,4S,5R,6R)-3,4,5,6-tetrakis(propanoyloxy)oxane-2-carboxylic Acid]	A (A: <25% of the tested compound remaining)	C (C: >75% of the tested compound remaining)	A (A: <25% of the tested compound remaining)
CCCC(=O)O[C@H]1[C@H](OC)OC[C@@H](OC(=O)CCC)[C@H]1OC(=O)CCC [Compound 83, (2R,3R,4R,5R)-3,5-bis(butanoyloxy)-2-methoxyoxan-4-yl Butanoate]	A (A: <25% of the tested compound remaining)	C (C: >75% of the tested compound remaining)	A (A: <25% of the tested compound remaining)
CCC(=O)O[C@H]1[C@H](OC)OC[C@@H](OC(=O)CC)[C@H]1OC(=O)CC [Compound 84, (2R,3R,4R,5R)-2-methoxy-3,5-bis(propanoyloxy)oxan-4-yl Propanoate]	B (B: 25-75% of the tested compound remaining)	C (C: >75% of the tested compound remaining)	C (C: >75% of the tested compound remaining)
CCCC(=O)O[C@@H]1[C@@H](OC(=O)CCC)[C@@H](OC)OC[C@@H]1OC(=O)CCC [Compound 85, (2S,3R,4S,5S)-3,5-bis(butanoyloxy)-2-methoxyoxan-4-yl Butanoate]	B (B: 25-75% of the tested compound remaining)	B (B: 25-75% of the tested compound remaining)	B (B: 25-75% of the tested compound remaining)
CCC(=O)O[C@@H]1[C@@H](OC(=O)CC)[C@@H](OC)OC[C@@H]1OC(=O)CC [Compound 86, (2S,3R,4S,5S)-2-methoxy-3,5-bis(propanoyloxy)oxan-4-yl Propanoate]	C (C: >75% of the tested compound remaining)	C (C: >75% of the tested compound remaining)	B (B: 25-75% of the tested compound remaining)
CCCC(=O)OC[C@H]1O[C@H](OC)[C@H](OC(=O)CCC)[C@@H](OC(=O)CCC)[C@@H]1OC(=O)CCC [Compound 87, [(2R,3R,4S,5R,6S)-3,4,5-tris(butanoyloxy)-6-methoxyoxan-2-yl]methyl Butanoate]	A (A: <25% of the tested compound remaining)	B (B: 25-75% of the tested compound remaining)	A (A: <25% of the tested compound remaining)
CCC(=O)OC[C@H]1O[C@H](OC)[C@H](OC(=O)CC)[C@@H](OC(=O)CC)[C@@H]1OC(=O)CC [Compound 88, [(2R,3R,4S,5R,6S)-6-methoxy-3,4,5-tris(propanoyloxy)oxan-2-yl]methyl Propanoate]	A (A: <25% of the tested compound remaining)	C (C: >75% of the tested compound remaining)	A (A: <25% of the tested compound remaining)
CCC(=O)OC[C@H]1O[C@H](OC)[C@H](OC(=O)CC)[C@@H](OC(=O)CC)[C@H]1OC(=O)CC [Compound 90, [(2R,3S,4S,5R,6S)-6-methoxy-3,4,5-tris(propanoyloxy)oxan-2-yl]methyl Propanoate]	A (A: <25% of the tested compound remaining)	C (C: >75% of the tested compound remaining)	A (A: <25% of the tested compound remaining)
C[C@@H]1OC(O)[C@@H](OC(=O)CCc2c[nH]c3ccccc23)[C@H](OC(=O)CCc2c[nH]c3ccccc23)[C@@H]1OC(=O)CCc1c[nH]c2ccccc12 (stereo partly drawn) [Compound 95, (2S,3R,4R,5S)-6-hydroxy-4,5-bis({[3-(1H-indol-3-yl)propanoyl]oxy})-2-methyloxan-3-yl 3-(1H-indol-3-yl)propanoate]	C (C: >75% of the tested compound remaining)	C (C: >75% of the tested compound remaining)	A (A: <25% of the tested compound remaining)
CCC(=O)O[C@@H]1[C@H](OC)OC[C@@H](OC(=O)CC)[C@H]1OC(=O)CC [Compound 101, (2R,3S,4R,5R)-2-methoxy-3,5-bis(propanoyloxy)oxan-4-yl Propanoate]	B (B: 25-75% of the tested compound remaining)	C (C: >75% of the tested compound remaining)	A (A: <25% of the tested compound remaining)
CCCC(=O)O[C@@H]1[C@@H](OC(=O)CCC)[C@H](C)O[C@H](OC(=O)CCc2c[nH]c3ccccc23)[C@@H]1OC(=O)CCC [Compound 119, (2R,3R,4R,5S,6S)-4,5-bis(butanoyloxy)-2-{[3-(1H-indol-3-yl)propanoyl]oxy}-6-methyloxan-3-yl Butanoate]	A (A: <25% of the tested compound remaining)	B (B: 25-75% of the tested compound remaining)	
CCCC(=O)O[C@H]1[C@H](OC(=O)CCC)[C@@H](OC(=O)CCc2c[nH]c3ccccc23)O[C@@H](C)[C@H]1OC(=O)CCC [Compound 120, (2R,3S,4R,5R,6S)-4,5-bis(butanoyloxy)-2-{[3-(1H-indol-3-yl)propanoyl]oxy}-6-methyloxan-3-yl Butanoate]	A (A: <25% of the tested compound remaining)	B (B: 25-75% of the tested compound remaining)	
CCCC(=O)O[C@@H]1[C@@H](OC(=O)CCC)[C@H](OC(=O)CCc2c[nH]c3ccccc23)OC[C@H]1OC(=O)CCC [Compound 129, (2S,3R,4S,5R)-4,5-bis(butanoyloxy)-2-{[3-(1H-indol-3-yl)propanoyl]oxy}oxan-3-yl Butanoate]	A (A: <25% of the tested compound remaining)	B (B: 25-75% of the tested compound remaining)	
CCC(=O)OC[C@H]1O[C@H](OC(=O)/C=C/c2c[nH]c3ccccc23)[C@H](OC(=O)CC)[C@@H](OC(=O)CC)[C@@H]1OC(=O)CC [Compound 131, (2R,3R,4S,5R,6R)-3,4,5-tris(propanoyloxy)-6-[(propanoyloxy)methyl]oxan-2-yl (2E)-3-(1H-indol-3-yl)prop-2-enoate]	A (A: <25% of the tested compound remaining)	B (B: 25-75% of the tested compound remaining)	
CCC(=O)O[C@@H]1[C@@H](OC(=O)CC)[C@H](OC(=O)/C=C/c2c[nH]c3ccccc23)OC[C@@H]1OC(=O)CC [Compound 132, (2S,3R,4S,5S)-3,4,5-tris(propanoyloxy)oxan-2-yl (2E)-3-(1H-indol-3-yl)prop-2-enoate]	A (A: <25% of the tested compound remaining)	B (B: 25-75% of the tested compound remaining)	
